In patent publication US12486303B2, “Use of peptide for inhibiting functions and expressions of multiple disease biomarkers” (NIBEC CO., LTD., priority 2018, dated 2025):

Legend:
HDAC5 protein = biological target: T1, HDAC5 protein (Homo sapiens, UniProt Q9UQL6); assay: Biacore T200 binding affinity to immobilised HDAC5 protein; settings: CM5 chip, 1:1 binding model
T1 construct: purchased Abcam
Description: For this purpose, HDAC5 protein (Abcam, MA, USA) was dissolved in sodium acetate buffer (pH 4.5), and was bound to a dextran-covered sensor chip surface (CM5 chip) using N-hydroxysuccinimide (NHS) and N-ethyl-N0-(3-dimethylaminopropyl)-carbodiimide hydrochloride (EDAC) as crosslinkers. The unreacted active group of dextran was blocked by the addition of ethanolamine (1M) thereto. The number of HDAC5 binding to the chip was measured as 4440RU (1000 RU=1 ng/mm^2). […] Rate constants for association (ka) and dissociation (kd), and a dissociation constant (KD) were calculated using BIAevaluation software and a 1:1 binding model.

[1] = test system: high-fat diet C57BL/6 mice; assay: Non-alcoholic hepatitis animal model induced by high-fat diet; assay type: in vivo; settings: 7 weeks, peptide 15 or 30 mg/kg
Description: In order to determine whether or not the peptide according to the present invention has the effect of treating hepatitis and inhibiting obesity in vivo, a non-alcoholic hepatitis animal model induced by a high-fat diet was used. Male C57BL/6 mice (7 weeks old) were acclimated for 1 week and a total of 20 animals were divided into four experimental groups (n=5 per group), namely, a normal diet group (control), a high-fat diet group (DIO: HFD-induced obesity), a group injected with a low dose of the peptide of SEQ ID NO: 1 (LD SEQ ID NO: 1, 15 mg/kg) and a group injected with a high dose of the peptide of SEQ ID NO: 1 (HD SEQ ID NO: 1, 30 mg/kg), and were reared with the high-fat diet or the normal diet for 7 weeks. The high-fat diet was a 60% high-fat diet (Dyets, Inc). During 7 weeks of rearing, body weight and feed intake were measured twice a week. On the 50th day after 7 weeks of rearing, the animals were sacrificed, and liver and adipose tissues were collected and sized.

T1 sequence (Q9UQL6 whole entry, species assumed): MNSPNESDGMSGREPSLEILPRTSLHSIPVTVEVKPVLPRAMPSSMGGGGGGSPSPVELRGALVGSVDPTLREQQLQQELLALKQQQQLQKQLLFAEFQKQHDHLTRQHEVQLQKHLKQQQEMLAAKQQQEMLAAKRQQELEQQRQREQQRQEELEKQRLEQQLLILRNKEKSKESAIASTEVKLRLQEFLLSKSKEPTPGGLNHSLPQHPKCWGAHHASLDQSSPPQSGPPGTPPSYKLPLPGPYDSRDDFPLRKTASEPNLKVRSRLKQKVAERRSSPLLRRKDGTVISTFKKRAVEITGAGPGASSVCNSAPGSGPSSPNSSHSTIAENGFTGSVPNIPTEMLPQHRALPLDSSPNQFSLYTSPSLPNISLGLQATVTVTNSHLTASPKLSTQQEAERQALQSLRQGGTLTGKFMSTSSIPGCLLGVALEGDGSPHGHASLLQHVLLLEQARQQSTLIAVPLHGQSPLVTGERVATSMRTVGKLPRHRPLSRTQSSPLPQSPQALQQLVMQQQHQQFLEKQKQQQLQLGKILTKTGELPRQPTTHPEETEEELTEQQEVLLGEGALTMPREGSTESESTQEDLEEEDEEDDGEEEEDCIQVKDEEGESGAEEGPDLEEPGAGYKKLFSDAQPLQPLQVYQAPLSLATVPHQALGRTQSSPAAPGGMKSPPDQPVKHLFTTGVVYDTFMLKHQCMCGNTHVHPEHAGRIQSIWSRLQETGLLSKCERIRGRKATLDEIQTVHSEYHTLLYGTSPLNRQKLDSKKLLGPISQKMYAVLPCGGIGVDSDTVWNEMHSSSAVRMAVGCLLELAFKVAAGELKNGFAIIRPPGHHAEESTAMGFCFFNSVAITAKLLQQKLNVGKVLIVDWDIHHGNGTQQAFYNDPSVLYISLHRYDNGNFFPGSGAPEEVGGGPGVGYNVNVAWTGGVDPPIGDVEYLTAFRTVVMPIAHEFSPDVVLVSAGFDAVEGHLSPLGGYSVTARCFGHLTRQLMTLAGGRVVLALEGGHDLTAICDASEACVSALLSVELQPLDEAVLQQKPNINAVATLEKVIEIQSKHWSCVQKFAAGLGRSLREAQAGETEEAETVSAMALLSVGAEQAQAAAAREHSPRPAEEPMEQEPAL

SMILES: C[C@@H](O)[C@H](NC(=O)[C@H](CO)NC(=O)[C@H](CS)NC(=O)[C@H](CCCCN)NC(=O)CN)C(=O)N[C@@H](CCCNC(=N)N)C(=O)NCC(=O)N[C@@H](CCCNC(=N)N)C(=O)N[C@@H](CCCCN)C(=O)N[C@@H](CS)C(=O)N[C@@H](CS)C(=O)N[C@@H](CCCNC(=N)N)C(=O)N[C@@H](CCCNC(=N)N)C(=O)N[C@@H](CCCCN)C(=O)N[C@@H](CCCCN)C(=O)O [SEQ ID NO: 1]
- kd (HDAC5 protein): 0.07264 s⁻¹
- kon (HDAC5 protein; read-out: ka): 108000 M⁻¹ s⁻¹
- Size of subcutaneous fat [1]: decreased
- Size of the liver [1]: decreased
